# In patent publication US20100144700A1, “HETEROCYCLIC-CARBONYL-DIAZABICYCLOALKANES AS MODULATORS OF THE NEURONAL NICOTINIC ACETYLCHOLINE ALPHA 4 BETA 2, SUBTYPE RECEPTOR FOR THE TREATMENT OF CNS RELATED DISORDERS” (TARGACEPT, INC., priority 2007, published 2010):
# Test: NOR (novel object recognition) task in rats
# Type: in vivo, rat
# Conditions: treated orally, 0.03 mg/kg
# Protocol: FIG. 1 is a chart showing the results of a study on object recognition in rats treated orally with (1S,5S)-3-(5-bromofuran-2-ylcarbonyl)-3,6-diazabicyclo[3.2.1]octane. The results are shown as a function of recognition index (%) versus dose (mg/kg).
# Certain exemplified compounds were assessed in the NOR (novel object recognition) task. Thus, (1S,5S)-3-(5-bromofuran-2-ylcarbonyl)-3,6-diazabicyclo[3.2.1]octane (FIG. 1) was active in NOR in rats, at 0.03 mg/kg. This provides evidence of the efficacy (and potency) of the compounds of the present invention in treating cognitive deficits, attentional disorders and dementias, and the potential of these compounds for human therapy.
smiles,measurement,value
"O=C(c1ccc(Br)o1)N1C[C@@H]2CN[C@@H](C2)C1 [(1S,5S)-3-(5-bromofuran-2-ylcarbonyl)-3,6-diazabicyclo[3.2.1]octane]",activity in NOR (recognition index),active
